Reference: patent US7867707B2, “Method for detecting analytes in a sample” (Evotec AG, priority 2004, dated 2011)

System: c-fos mRNA
Experiment: Expression of c-fos mRNA in HepG2 cells, bead-based confocal detection with detection/capture oligonucleotides
Type: cell-based
Details: 100 nM PMA, 24 μl of lysate, using the calibration of example 1a
Procedure: Fully automated dual-channel confocal imaging was performed with two independent cooled CCD detectors. Excitation wavelengths were 532 nm and 633 nm, a dichroic beam splitter with 630 nm was used and emission filters were 565/50 nm and 690/40 nm. Laser power was […] for both wavelengths, measured at the entrance of the objective. Exposure times were usually in the range of 500-1000 ms.
The analysis of the images was performed with image analysis software as follows. Segmentation of the beads from the background was performed on a pixel-basis in the reference image. […] A mask of these rings corresponding to detected beads was generated from the reference image. This mask was applied to the signal image (see FIG. 6, right picture). Areas within the outer boundary of the ring were evaluated for fluorescence intensity stemming from the DO-analyte-CO complex bound to the bead. […] Such local background intensity was then subtracted from the signal intensity.
The final result was the mean fluorescence intensity/bead pixel of the signal image. In general, the intensity was averaged over all correctly detected beads of the image. As already mentioned, images of sedimented beads were taken. The sedimented beads were usually comprised in wells of micro- or nanotiter plates and in some cases, several images were taken of each well. […]

CCCCCCCCCCCCCC(=O)O[C@@H]1[C@@H](C)[C@@]2(O)[C@@H](C=C(CO)C[C@]3(O)C(=O)C(C)=C[C@@H]23)[C@@H]2C(C)(C)[C@]12OC(C)=O [PMA, Phorbol 12-myristate 13-acetate]
c-fos mRNA copy number: 3.03*10^6 copies mRNA/well
